US20180064125A1, “INHIBITION OF PATHOGENIC GROWTH ON PLANT MATERIALS USING LACTIC ACID PRODUCING MICROORGANISMS” (priority 2009, published 2018)

Test system: E. coli O157:H7
Assay: 12 day shelf-life study of inoculated spinach rinsed with LAB, chlorine or multi-hurdle intervention at 7° C.
Parameters: species or system Escherichia coli O157:H7
Conditions: 12 day shelf-life at 7° C., in words, P<0.0001

OCl [chlorine, sodium hypochlorite]
Reductions in pathogen populations compared to control populations: Significant reductions
